The results in this text go back to patent publication US20190345138A1, “HETEROCYCLIC AMIDES AS KINASE INHIBITORS” (GlaxoSmithKline Intellectual Property Development Limited, priority 2016, published 2019).

One test has as its target T1, RIP1 kinase (Homo sapiens, UniProt Q13546).
T1 sequence (Q13546 1-375 limits assumed): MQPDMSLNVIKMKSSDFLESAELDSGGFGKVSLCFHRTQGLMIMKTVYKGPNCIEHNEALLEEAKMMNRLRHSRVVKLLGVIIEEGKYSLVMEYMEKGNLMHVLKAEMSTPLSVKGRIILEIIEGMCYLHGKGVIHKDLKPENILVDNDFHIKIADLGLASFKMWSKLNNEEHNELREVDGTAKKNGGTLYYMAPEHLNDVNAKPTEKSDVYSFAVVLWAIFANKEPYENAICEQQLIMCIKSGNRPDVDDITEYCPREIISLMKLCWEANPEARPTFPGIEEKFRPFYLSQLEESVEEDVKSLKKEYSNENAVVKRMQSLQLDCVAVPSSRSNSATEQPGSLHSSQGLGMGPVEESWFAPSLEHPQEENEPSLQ
Nature of the test: fluorescent polarization based binding assay. The following applies: mean of a minimum of 2 experiments. The source says: A fluorescent polarization based binding assay was used to assess the activity of the compounds of this invention, the details of which are disclosed in International Patent Appln. No. PCT/IB2014/059004, now, International Patent Appln. Pub.

Test [1] concerns human monocytic leukemia U937 cells. Nature of the test: necroptosis assay in U937 cells. The following applies: Homo sapiens, U-937, U937 cells; viability by cellular ATP (Cell Titer-Glo); read-out: pIC50, inhibited necrosis in U937 cells (converted). The test is classed as cell-based. Put shortly:
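Necroptosis was induced in human U937 or mouse L929 cells, and viability was quantified as cellular ATP with Cell Titer-Glo. Data are means±standard deviation.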
On the technique in general: Cellular ATP, detected with luciferase, serves as a proxy for viable cell number.

“And” between values parts separate entries of the source, which are not always exact repeats. Equal values may be shown once.

On to `COc1ccnc(N2CCC(C(=O)N3N=CC[C@H]3c3cccc(C#N)c3)CC2)n1` [Example 69, (S)-3-(1-(1-(4-methoxypyrimidin-2-yl)piperidine-4-carbonyl)-4,5-dihydro-1H-pyrazol-5-yl)benzonitrile], for which the IC50 was 1 to 31.6 nM and 1 to 10 nM on RIP1 kinase; 1 to 100 nM in test [1].
For `CSc1nc(N)cc(N2CCC(C(=O)N3N=CC[C@H]3c3ccccc3)CC2)n1` [Example 60, (S)-(1-(6-amino-2-(methylthio)pyrimidin-4-yl)piperidin-4-yl)(5-phenyl-4,5-dihydro-1H-pyrazol-1-yl)methanone], the IC50 on RIP1 kinase is 1 to 31.6 nM; in test [1], 1 to 100 nM.
In the case of `COc1ccnc(N2CCC(C(=O)N3N=CC[C@H]3c3cc(F)cc(F)c3)CC2)n1` [Example 79, (S)-(5-(3,5-difluorophenyl)-4,5-dihydro-1H-pyrazol-1-yl)(1-(4-methoxypyrimidin-2-yl)piperidin-4-yl)methanone], the IC50 at RIP1 kinase is 1 to 31.6 nM and 1 to 10 nM; in test [1] it was 1 to 100 nM.
In the case of `N#Cc1cncnc1N1CCC(C(=O)N2N=CC[C@H]2c2ccccc2)CC1` [Example 50, (S)-4-(4-(5-phenyl-4,5-dihydro-1H-pyrazole-1-carbonyl)piperidin-1-yl)pyrimidine-5-carbonitrile], the IC50 on RIP1 kinase was 1 to 31.6 nM and 1 to 10 nM; in test [1], 1 to 100 nM.
As for `N#Cc1nccc(N2CCC(C(=O)N3N=CC[C@H]3c3ccccc3)CC2)n1` [Example 18, (S)-4-(4-(5-phenyl-4,5-dihydro-1H-pyrazole-1-carbonyl)piperidin-1-yl)pyrimidine-2-carbonitrile], the IC50 is 1 to 31.6 nM and 1 to 10 nM on RIP1 kinase; 1 to 100 nM in test [1].
As to `COc1cc(N2CCC(C(=O)N3N=CC[C@H]3c3ccccc3)CC2)nc(N)n1` [Example 34, (S)-(1-(2-amino-6-methoxypyrimidin-4-yl)piperidin-4-yl)(5-phenyl-4,5-dihydro-1H-pyrazol-1-yl)methanone], the IC50 on RIP1 kinase is 1 to 31.6 nM; in test [1], 1 to 100 nM.
In the same order, the values of `O=C(C1CCN(c2ccc3nccn3n2)CC1)N1N=CC[C@H]1c1cncc(F)c1` [Example 117, (S)-(5-(5-fluoropyridin-3-yl)-4,5-dihydro-1H-pyrazol-1-yl)(1-(imidazo[1,2-b]pyridazin-6-yl)piperidin-4-yl)methanone] are 1 to 31.6 nM and 1 to 100 nM.
For `N#Cc1coc(N2CCC(C(=O)N3N=CC[C@H]3c3cc(F)cc(F)c3)CC2)n1` [Example 135, (S)-2-(4-(5-(3,5-difluorophenyl)-4,5-dihydro-1H-pyrazole-1-carbonyl)piperidin-1-yl)oxazole-4-carbonitrile], the IC50 at RIP1 kinase was 1 to 31.6 nM and 1 to 10 nM; in test [1], 1 to 100 nM.
As for `CSc1cc(N2CCC(C(=O)N3N=CC[C@H]3c3ccccc3)CC2)ncn1` [Example 59, (S)-(1-(6-(methylthio)pyrimidin-4-yl)piperidin-4-yl)(5-phenyl-4,5-dihydro-1H-pyrazol-1-yl)methanone], the IC50 at RIP1 kinase was 1 to 31.6 nM and 1 to 10 nM; in test [1], 1 to 100 nM.
Take `NC(=O)Cc1nc(N2CCC(C(=O)N3N=CC[C@H]3c3ccccc3)CC2)ncc1F` [Example 169, (S)-2-(5-fluoro-2-(4-(5-phenyl-4,5-dihydro-1H-pyrazole-1-carbonyl)piperidin-1-yl)pyrimidin-4-yl)acetamide]: the IC50 was 1 to 31.6 nM and 1 to 10 nM on RIP1 kinase; 1 to 100 nM in test [1].
Regarding `O=C(C1CCN(c2cc(C(F)(F)F)ncn2)CC1)N1N=CC[C@H]1c1ccccc1` [Example 51, (S)-(5-phenyl-4,5-dihydro-1H-pyrazol-1-yl)(1-(6-(trifluoromethyl)pyrimidin-4-yl)piperidin-4-yl)methanone], the figures for the IC50 (at RIP1 kinase; in test [1]) were 1 to 31.6 nM and 1 to 100 nM, respectively.
For `CC(=O)Nc1cncc(N2CCC(C(=O)N3N=CC[C@H]3c3ccccc3)CC2)n1` [Example 64, (S)-N-(6-(4-(5-phenyl-4,5-dihydro-1H-pyrazole-1-carbonyl)piperidin-1-yl)pyrazin-2-yl)acetamide], the IC50 on RIP1 kinase was 1 to 31.6 nM and 1 to 10 nM; in test [1], 1 to 100 nM.
Regarding `O=C(NCCO)c1ccnc(N2CCC(C(=O)N3N=CC[C@H]3c3ccccc3)CC2)n1` [Example 126, (S)-N-(2-hydroxyethyl)-2-(4-(5-phenyl-4,5-dihydro-1H-pyrazole-1-carbonyl)piperidin-1-yl)pyrimidine-4-carboxamide], the IC50 on RIP1 kinase was 1 to 31.6 nM; in test [1] it was 1 to 100 nM.
For the compound `O=C1Cc2cnc(N3CCC(C(=O)N4N=CC[C@H]4c4cc(F)cc(F)c4)CC3)nc2N1` [Example 80, (S)-2-(4-(5-(3,5-difluorophenyl)-4,5-dihydro-1H-pyrazole-1-carbonyl)piperidin-1-yl)-5H-pyrrolo[2,3-d]pyrimidin-6(7H)-one], the IC50 is 1 to 31.6 nM and 1 to 10 nM at RIP1 kinase; 1 to 100 nM in test [1].
Consider `O=C(C1CCN(c2ncc(F)c(OCCO)n2)CC1)N1N=CC[C@H]1c1ccccc1` [Example 155, (S)-(1-(5-fluoro-4-(2-hydroxyethoxy)pyrimidin-2-yl)piperidin-4-yl)(5-phenyl-4,5-dihydro-1H-pyrazol-1-yl)methanone], for which the figures for the IC50 (at RIP1 kinase; in test [1]) were 1 to 31.6 nM and 1 to 100 nM, respectively.
Take `CSc1nccc(N2CCC(C(=O)N3N=CC[C@H]3c3cc(F)cc(F)c3)CC2)n1` [Example 82, (S)-(5-(3,5-difluorophenyl)-4,5-dihydro-1H-pyrazol-1-yl)(1-(2-(methylthio)pyrimidin-4-yl)piperidin-4-yl)methanone]: the IC50 on RIP1 kinase is 1 to 31.6 nM and 1 to 10 nM; in test [1] it was 1 to 100 nM.
For the compound `CNc1ccnc(N2CCC(C(=O)N3N=CC[C@H]3c3ccccc3)CC2)n1` [Example 16, (S)-(1-(4-(methylamino)pyrimidin-2-yl)piperidin-4-yl)(5-phenyl-4,5-dihydro-1H-pyrazol-1-yl)methanone], the results for the IC50 (at RIP1 kinase; in test [1]) were 1 to 31.6 nM and 1 to 100 nM, respectively.
The matching figures for `O=C(c1ccnc(N2CCC(C(=O)N3N=CC[C@H]3c3ccccc3)CC2)n1)N1CCNCC1` [Example 146, (S)-(5-phenyl-4,5-dihydro-1H-pyrazol-1-yl)(1-(4-(piperazine-1-carbonyl)pyrimidin-2-yl)piperidin-4-yl)methanone]: 1 to 31.6 nM and 1 to 100 nM.
In the same order, the values of `NC(=O)c1cnc(N2CCC(C(=O)N3N=CC[C@H]3c3cc(F)ccc3F)CC2)nc1` [Example 123, (S)-2-(4-(5-(2,5-difluorophenyl)-4,5-dihydro-1H-pyrazole-1-carbonyl)piperidin-1-yl)pyrimidine-5-carboxamide] are 1 to 31.6 nM and 1 to 100 nM.
The matching figures for `N#Cc1ccc(N2CCC(C(=O)N3N=CC[C@H]3c3ccccc3)CC2)nn1` [Example 42, (S)-6-(4-(5-phenyl-4,5-dihydro-1H-pyrazole-1-carbonyl)piperidin-1-yl)pyridazine-3-carbonitrile]: 1 to 31.6 nM and 1 to 100 nM.
`O=C(c1ccnc(N2CCC(C(=O)N3N=CC[C@H]3c3ccccc3)CC2)n1)N1CCOCC1` [Example 145, (S)-(1-(4-(morpholine-4-carbonyl)pyrimidin-2-yl)piperidin-4-yl)(5-phenyl-4,5-dihydro-1H-pyrazol-1-yl)methanone]: the IC50 at RIP1 kinase is 1 to 31.6 nM; in test [1] it was 1 to 100 nM.
The matching figures for `O=C(C1CCN(c2nccc(=O)[nH]2)CC1)N1N=CC[C@H]1c1ccccc1` [Example 19, (S)-2-(4-(5-phenyl-4,5-dihydro-1H-pyrazole-1-carbonyl)piperidin-1-yl)pyrimidin-4(3H)-one]: 1 to 31.6 nM and 1 to 100 nM.
Take `N#Cc1cncc(N2CCC(C(=O)N3N=CC[C@H]3c3ccccc3)CC2)n1` [Example 47, (S)-6-(4-(5-phenyl-4,5-dihydro-1H-pyrazole-1-carbonyl)piperidin-1-yl)pyrazine-2-carbonitrile]: the IC50 on RIP1 kinase was 1 to 31.6 nM; in test [1], 1 to 100 nM.
Turning to `O=C1NCCC1c1nc(N2CCC(C(=O)N3N=CC[C@H]3c3ccccc3)CC2)ncc1F` (stereo partly drawn) [Example 150, 3-(5-fluoro-2-(4-((S)-5-phenyl-4,5-dihydro-1H-pyrazole-1-carbonyl)piperidin-1-yl)pyrimidin-4-yl)pyrrolidin-2-one], the IC50 on RIP1 kinase was 1 to 31.6 nM and 1 to 10 nM; in test [1], 1 to 100 nM.
As for `N#Cc1cccc([C@@H]2CC=NN2C(=O)C2CCN(c3ncc(F)c(N)n3)CC2)c1` [Example 72, (S)-3-(1-(1-(4-amino-5-fluoropyrimidin-2-yl)piperidine-4-carbonyl)-4,5-dihydro-1H-pyrazol-5-yl)benzonitrile], the IC50 on RIP1 kinase is 1 to 31.6 nM; in test [1], 1 to 100 nM.
Take `NC(=O)c1ncnc(N2CCC(C(=O)N3N=CC[C@H]3c3cc(F)cc(F)c3)CC2)c1F` [Example 165, (S)-6-(4-(5-(3,5-difluorophenyl)-4,5-dihydro-1H-pyrazole-1-carbonyl)piperidin-1-yl)-5-fluoropyrimidine-4-carboxamide]: the IC50 on RIP1 kinase is 1 to 31.6 nM and 1 to 10 nM; in test [1], 1 to 100 nM.
In the case of `O=C(C1CCN(c2ccc3nccn3n2)CC1)N1N=CC[C@H]1c1ccccc1` [Example 22, (S)-(1-(imidazo[1,2-b]pyridazin-6-yl)piperidin-4-yl)(5-phenyl-4,5-dihydro-1H-pyrazol-1-yl)methanone], the IC50 was 1 to 31.6 nM and 1 to 10 nM at RIP1 kinase; 1 to 100 nM in test [1].
